Test system: Bp
Design: species or system BALB/c mice
Details: mouse, in vivo

## gentamicin [free (i.e., unencapsulated) gentamicin]
  bacterial burdens in lungs, livers, and spleens: 10^3-10^5 CFUs/organ
  time to death of all mice after infection: ≤ 4 days

From patent US20180049984A1 (priority 2014, published 2018)
